# Tests used:
# [1] = system: wild-type Kl Kap123; test: SPR binding of wild-type or mutant H3_1–35-/H4_1–21-NLS peptides to immobilized wild-type Kap123; design: species or system Kluyveromyces lactis; details: 10 mM HEPES, 150 mM NaCl, 7°C, relative to wild-type; for affinity of mutant H3-NLS toward Kap123: wild-type Kap123 immobilized 7500 RU on CM5, H3_1–35-NLS peptides 0-5 μM
# Protocol: Figure 5. Surface plasmon resonance analysis of wild-type Kl Kap123 in the presence of wild-type or mutants of H3_1–35-/H4_1–21-NLSs. The biacore diagrams (a) and the normalized bar graph (c) of wild-type Kap123 in the presence of wild-type or mutant H3_1-35-NLS. The wild-type Kap123 was immobilized on a CM5 chip with 7500 RU and the wild-type or mutant H3_1–35-NLS peptides (H3_K14A, H3_K14Q, H3_K23A, H3_K23Q, or H3_K14Q/K23Q) were injected at different concentrations (0, 0.07, 0.15, 0.32, 0.65, 1.25, 2.5, and 5 μM). The biacore diagrams (b) and the bar graph (d) of wild-type Kap123 in the presence of wild-type or mutant H4_1–21-NLS. The wild-type Kap123 was immobilized on a CM5 chip with 7116 RU and the wild-type or mutant H4_1–21-NLS peptides (H4_K16A or H4_K5Q/K12Q) were injected at different concentrations (0, 0.32, 0.62, 1.25, 2.5, 5, and 10 μM). The H4K16Q peptide was used at different concentrations (0, 0.7, 1.5, 3, 6, 12, and 25 uM). See details in Materials and method section. Red-colored sensorgrams represent positive controls of wild-type Kap123, which were injected 2000 nM wild-type Kap123 before and after sample injection (a–b). The relative binding between wild-type Kap123 and mutant peptides was measured at five different concentrations for generating error bars (c–e). (e) The normalized affinity bar graph of H3-/H4-NLS toward wild-type Kap123 was derived from (a) and (b).
# A CM5 chip (GE healthcare) was coated with streptavidin in 10 mM acetate pH 4.5 at a flow rate of 5 μl/min. The biotinylated C-terminal histone H3 peptide (residues 1–35) was synthesized (Anygen, South Korea) and immobilized on the CM5 chip coated with streptavidin with a flow rate of 5 μl/min in the binding buffer (10 mM HEPES, 150 mM NaCl). Various concentrations of the wild-type and mutant Kl Kap123 protein (see figure legends of Figures 3 and 4) were prepared in the binding buffer with 2 mM TCEP and then injected at the flow rate of 30 μl/min in the binding buffer using a T200 instrument (GE Healthcare) at 7°C. After injecting the sample, the chip was regenerated by a regeneration buffer (1 M NaCl and 20 mM NaOH in binding buffer) at a flow rate of 30 μl/min. For measuring the interaction of wild-type Kl Kap123 and mutant histone H3 or H4 peptides, 0.1 μM Kap123 diluted in10mM acetate pH 4.0 was immobilized 7100 RU on the CM5 chip at flow rate of 5 μl/min. Peptides of histone H3 or H4 mutants were injected at a flow rate of 30 μl/min in the binding buffer and the binding was monitored at various concentrations (0, 0.31, 0.62, 1.25, 2.5, 5 and 10 uM) at 7°C. For the H4K16Q peptide, Kap 123 was immobilized with 5100 RU on CM5 chip, and H4K16Q and wild-type H4 peptides (0, 0.7, 1.5, 3, 6, 12 and 25 uM) were injected as analytes at a flow rate of 30 μl/min at 7°C.
# [2] = target: Kapβ2; details: ref Soniat et al., 2016; read-out: KD of Kapβ2-H3_1–47-NLS interaction; cited from earlier work
# Description: Accumulated evidence illustrates that cytosolic histones H3 and H4 are acetylated prior to nuclear import and believed to play a role in the translocation process mediated by Kap123 ([Sobel et al., 1994]; [Sobel et al., 1995]; [Loyola et al., 2006]; [Jasencakova et al., 2010]; [Ma et al., 1998]; [Blackwell et al., 2007]; [Kuo et al., 1996]).
# [3] = system: Kap123-H3-NLS; test: Competition pull-down: pre-assembled MBP-Kap123-H3-NLS challenged by H4-NLS; type: binding; details: amylose affinity pull-down, MBP-tagged Kap123 pre-assembled with H3_1–59-Sumo, challenged by H4_1–48-Sumo (wild-type or mutant) 0x, 1x, 2x, 5x, 10x; 30 mM Tris–HCl pH 8.0, 50 mM NaCl, 1 mM DTT, 0.01% NP-40; 90 mins at 4°C; three independent assays
# Protocol: Figure 6. Competition assay of H3- and H4-NLSs (wild-type H4 and mutant H4^K5Q/K12Q) toward Kap123 association. Competition of H3_1–59- and H4_1–48-Sumo (a) as well as H3_1–59- and H4_1–48 ^K5Q/K12Q-Sumo (b) toward Kap123 binding was monitored by amylose affinity pull-downs using MBP-tagged Kap123. A fixed amount of the pre-assembled complex of MBP-tagged Kap123 and H4_1–48-Sumo was challenged by an increasing amount of H3_1–59-Sumo. The same competition assay was done by using pre-incubated MBP-tagged Kap123-H3_1–59-Sumo and gradually increasing the amount of H4_1–48-Sumo either with wild-type (a) or mutant (b), K5Q/K12Q) H4 sequence. (c–d) The normalized bar graphs of remaining H3_1–59- and H4_1–48-NLS-Sumo after challenged with increased amounts of H4_1–48- and H3_1–59-NLS-Sumo (0x, 1x, 2x, 5x, and 10x) toward Kap123, respectively. Either H4_1–48-NLS-Sumo (c) or H4_1–48^K5Q/K12Q-NLS-Sumo (d) was used for the H3_1–59-NLS-Sumo competition. Three independent competition assays were carried out and the band intensity was measured to calculate the error bar. Figure 6—figure supplement 1. […] (a) Competition of H3_1–59-Sumo using either H4_1–48-Sumo or H4_1–48 ^K5Q/K8Q/K12Q-Sumo toward Kap123 binding was monitored by amylose affinity pull-downs using MBP-tagged Kap123. […] Three independent competition assays were carried out and the band intensity was measured to calculate the error bar. […]
# [4] = system: nuclear translocation of the H4-NLS-GFP reporter; details: GFP reporter assay; ref Blackwell et al., 2007; cited from earlier work
substance,measurement,setting,value
H3 K14A,affinity of mutant H3-NLS toward Kap123,[1]; five concentrations,decreased the affinity toward Kap123
H3 K14Q,affinity of mutant H3-NLS toward Kap123,[1]; five concentrations,decreased the affinity toward Kap123
H3 K23A,affinity of mutant H3-NLS toward Kap123,[1]; five concentrations,decreased the affinity toward Kap123
H3 K23Q,affinity of mutant H3-NLS toward Kap123,[1]; five concentrations,decreased the affinity toward Kap123
H3_1–47-NLS: histone H3 residues 1–47 NLS bound to Kapβ2,Kd,[2],77.1 nM
H4-NLS^K5Q/K8Q/K12Q: tri-acetylation mimic mutant of H4-NLS (H4_1–48-Sumo in competition assay),competition with H3-NLS for Kap123,[3],no longer competed with H3-NLS in Kap123 interaction
same,"nuclear translocation of H4-NLS-GFP reporter, acetylation mimic",[4],dramatically reduced the nuclear translocation
H4-NLS^K16A,affinity of mutant H4-NLS toward Kap123,"[1]; wild-type Kap123 immobilized 7116 RU on CM5, H4_1–21-NLS peptides 0-10 μM, five concentrations",reduced the affinity toward Kap123 although the effect was mild
H4-NLS^K16Q,affinity of H4 K16Q toward Kap123,"[1]; Kap123 immobilized 5100 RU on CM5, H4K16Q 0-25 uM",reduced the affinity toward Kap123 although the effect was mild
"H4_1–48^K5Q/K12Q-Sumo: C-terminal Sumo-tagged histone H4_1–48, K5Q/K12Q",competition with H3-NLS for Kap123,[3],loss of competition

# Reference: publication PMC5677370, “Structure-based nuclear import mechanism of histones H3 and H4 mediated by Kap123” (eLife, 2017)
